Reference: the Kinase Knowledgebase extract (Sharma et al. 2016)
pIC50: −log10 of the molar value.

Molecular target: MAPK14 (human) (UniProt Q16539)
Experiment: Inhibition of LPS Stimulated TNF Production by U937 Cells
Details: not given

Chain of MAPK14 (human) (Q16539 whole entry, looked up): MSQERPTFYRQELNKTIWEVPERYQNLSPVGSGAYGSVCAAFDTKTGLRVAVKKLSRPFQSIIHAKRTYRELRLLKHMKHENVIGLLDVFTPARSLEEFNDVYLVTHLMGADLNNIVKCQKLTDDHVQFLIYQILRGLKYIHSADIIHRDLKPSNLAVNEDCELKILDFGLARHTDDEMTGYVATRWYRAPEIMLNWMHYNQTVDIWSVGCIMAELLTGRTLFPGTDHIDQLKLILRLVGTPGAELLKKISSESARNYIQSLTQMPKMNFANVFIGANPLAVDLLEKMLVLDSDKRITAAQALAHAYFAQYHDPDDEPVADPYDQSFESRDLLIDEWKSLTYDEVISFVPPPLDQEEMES

SMILES	pIC50
C[C@H](NS(C)(=O)=O)c1[nH]nc(-c2ccc(F)cc2)c1-c1ccncc1	5.77
O=C(NCCCc1[nH]nc(-c2ccc(F)cc2)c1-c1ccncc1)NC1CN2CCC1CC2 (stereo unspecified)	< 6.00
Cc1cccc(C)c1NC(=O)NCc1[nH]nc(-c2ccc(F)cc2)c1-c1ccncc1	5.63
O=C(c1ccc(Cl)cc1)N1CCC(c2[nH]nc(-c3ccc(F)cc3)c2-c2ccncc2)CC1	6.24
OCCCNc1cc(-c2c[nH]nc2-c2ccc(F)cc2)ccn1	7.01
CN(C)CCCNc1n[nH]c(-c2ccc(F)cc2)c1-c1ccncc1	6.57
Cn1nc(-c2ccc(F)cc2)c(-c2ccncc2)c1Br	5.85
O=C(COc1ccc(Cl)cc1)NCc1[nH]nc(-c2ccc(F)cc2)c1-c1ccncc1	5.90
CCOC(=O)N[C@H](C)c1[nH]nc(-c2ccc(F)cc2)c1-c1ccncc1	6.13
Cc1n[nH]c(-c2ccc3c(c2)OCO3)c1-c1ccncc1	5.77
CN(C)CCn1cc(-c2ccnc(CCc3ccc(F)cc3)c2)c(-c2ccc(F)cc2)n1	< 5.00
Cc1n[nH]c(-c2cccc(Cl)c2)c1-c1ccncc1	7.13
CC(C)NC(=O)NCc1[nH]nc(-c2ccc(F)cc2)c1-c1ccncc1	5.00
Cc1[nH]nc(-c2ccc(Br)cc2)c1-c1ccncc1	6.61
CN(C)CCn1cc(-c2ccncc2)c(-c2ccc(F)cc2)n1	6.59

Second part, the compound after the results:

pIC50	SMILES
< 6.00	O=C(N[C@H](Cc1ccccc1)c1[nH]nc(-c2ccc(F)cc2)c1-c1ccncc1)c1ccccn1
< 6.00	CC(C)C(=O)N[C@H](Cc1ccccc1)c1[nH]nc(-c2ccc(F)cc2)c1-c1ccncc1
< 6.00	CC(=O)OC(C)(C)C(=O)N[C@H](Cc1ccccc1)c1[nH]nc(-c2ccc(F)cc2)c1-c1ccncc1
5.40	O=C(NCc1[nH]nc(-c2ccc(F)cc2)c1-c1ccncc1)c1ccccc1C(F)(F)F
5.65	CC(Oc1ccccc1)C(=O)NCc1[nH]nc(-c2ccc(F)cc2)c1-c1ccncc1 (stereo unspecified)
< 6.00	COc1ccccc1C(=O)N[C@H](Cc1ccccc1)c1[nH]nc(-c2ccc(F)cc2)c1-c1ccncc1

Same assay, conditions: concentration not given here

SMILES	inhibition
CN(C)c1cccc2c(S(=O)(=O)NCc3[nH]nc(-c4ccc(F)cc4)c3-c3ccncc3)cccc12	2%
Cc1cc(C)c(S(=O)(=O)N[C@@H](C)c2[nH]nc(-c3ccc(F)cc3)c2-c2ccncc2)c(C)c1	87%
CC(C)c1ccc(S(=O)(=O)N[C@@H](C)c2[nH]nc(-c3ccc(F)cc3)c2-c2ccncc2)cc1	76%
Cc1cccc(Cl)c1S(=O)(=O)N[C@@H](C)c1[nH]nc(-c2ccc(F)cc2)c1-c1ccncc1	89%
O=C(NCc1[nH]nc(-c2ccc(F)cc2)c1-c1ccncc1)c1ccc(F)c(C(F)(F)F)c1	22%
CC(C)COC(=O)N[C@H](C)c1[nH]nc(-c2ccc(F)cc2)c1-c1ccncc1	32%
C[C@H](NS(=O)(=O)c1cn(C)cn1)c1[nH]nc(-c2ccc(F)cc2)c1-c1ccncc1	74%
O=S(=O)(NCCCc1[nH]nc(-c2ccc(F)cc2)c1-c1ccncc1)c1cccc(Cl)c1Cl	18%
O=C(NCc1[nH]nc(-c2ccc(F)cc2)c1-c1ccncc1)c1cccc(C(F)(F)F)c1F	29%
O=S(=O)(c1ccc(C(F)(F)F)cc1)N1CCC(c2[nH]nc(-c3ccc(F)cc3)c2-c2ccncc2)CC1	31%
O=C(NCc1[nH]nc(-c2ccc(F)cc2)c1-c1ccncc1)c1c(F)ccc(F)c1F	36%
C[C@H](NS(=O)(=O)c1ccc(F)cc1Cl)c1[nH]nc(-c2ccc(F)cc2)c1-c1ccncc1	85%
CC(C)NC(=O)N[C@H](C)c1[nH]nc(-c2ccc(F)cc2)c1-c1ccncc1	52%
COc1cc(C(=O)NCc2[nH]nc(-c3ccc(F)cc3)c2-c2ccncc2)cc(OC)c1OC	21%
O=S(=O)(c1cccc(Cl)c1Cl)N1CCC(c2[nH]nc(-c3ccc(F)cc3)c2-c2ccncc2)CC1	22%
C[C@@H](NS(=O)(=O)c1c(Cl)cccc1Cl)c1[nH]nc(-c2ccc(F)cc2)c1-c1ccncc1	75%
Cc1c(C)c(S(=O)(=O)N[C@H](C)c2[nH]nc(-c3ccc(F)cc3)c2-c2ccncc2)c(C)c2c1OC(C)(C)CC2	68%
C[C@H](NS(=O)(=O)c1cccc(C(F)(F)F)c1)c1[nH]nc(-c2ccc(F)cc2)c1-c1ccncc1	83%
C[C@@H](NC(=O)N1CCCC1)c1[nH]nc(-c2ccc(F)cc2)c1-c1ccncc1	48%
N#Cc1cccc(S(=O)(=O)N2CCC(c3[nH]nc(-c4ccc(F)cc4)c3-c3ccncc3)CC2)c1	14%

SMILES	inhibition
CCOC(=O)c1ccc(NC(=O)NCc2[nH]nc(-c3ccc(F)cc3)c2-c2ccncc2)cc1	13%
O=S(=O)(c1ccc(-c2ccon2)s1)N1CCC(c2[nH]nc(-c3ccc(F)cc3)c2-c2ccncc2)CC1	3%
CCOC(=O)CCCC(=O)NCc1[nH]nc(-c2ccc(F)cc2)c1-c1ccncc1	22%
CCOC(=O)c1cccc(NC(=O)NCc2[nH]nc(-c3ccc(F)cc3)c2-c2ccncc2)c1	14%
Cc1cc(C)c(C(=O)N[C@@H](C)c2[nH]nc(-c3ccc(F)cc3)c2-c2ccncc2)c(C)c1	39%
O=S(=O)(NCc1[nH]nc(-c2ccc(F)cc2)c1-c1ccncc1)c1cccc2nonc12	54%
C[C@@H](NC(=O)[C@H]1CCCN1)c1[nH]nc(-c2ccc(F)cc2)c1-c1ccncc1	39%
C[C@H](NC(=O)c1cc(F)cc(C(F)(F)F)c1)c1[nH]nc(-c2ccc(F)cc2)c1-c1ccncc1	36%
C[C@@H](NS(=O)(=O)c1cccc2nonc12)c1[nH]nc(-c2ccc(F)cc2)c1-c1ccncc1	96%
C[C@@H](NS(=O)(=O)C[C@@]12CC[C@H](CC1=O)C2(C)C)c1[nH]nc(-c2ccc(F)cc2)c1-c1ccncc1	61%
CC(C)=CC(=O)N[C@H](C)c1[nH]nc(-c2ccc(F)cc2)c1-c1ccncc1	28%
O=S(=O)(NCc1[nH]nc(-c2ccc(F)cc2)c1-c1ccncc1)c1ccc(Cl)cc1	37%
CNC(=O)N[C@@H](C)c1[nH]nc(-c2ccc(F)cc2)c1-c1ccncc1	79%
CCOC(=O)C(CC(C)C)NC(=O)NCc1[nH]nc(-c2ccc(F)cc2)c1-c1ccncc1 (stereo unspecified)	9%
O=S(=O)(NCc1[nH]nc(-c2ccc(F)cc2)c1-c1ccncc1)c1cccc(C(F)(F)F)c1	75%
C[C@@H](NS(=O)(=O)[C@@]12CC[C@H](CC1=O)C2(C)C)c1[nH]nc(-c2ccc(F)cc2)c1-c1ccncc1	54%
Cc1ccc(F)cc1S(=O)(=O)N[C@@H](C)c1[nH]nc(-c2ccc(F)cc2)c1-c1ccncc1	72%
O=S(=O)(c1ccccc1)N1CCC(c2[nH]nc(-c3ccc(F)cc3)c2-c2ccncc2)CC1	21%
CCc1ccc(S(=O)(=O)NCc2[nH]nc(-c3ccc(F)cc3)c2-c2ccncc2)cc1	8%

Second part, the compound after the results:

inhibition	SMILES
19%	O=C(NCc1[nH]nc(-c2ccc(F)cc2)c1-c1ccncc1)c1ccc(Cl)cc1
8%	O=C(N[C@H](Cc1ccccc1)c1[nH]nc(-c2ccc(F)cc2)c1-c1ccncc1)c1ccccn1
28%	COc1ccc(CC(=O)N[C@@H](C)c2[nH]nc(-c3ccc(F)cc3)c2-c2ccncc2)cc1OC
27%	C[C@@H](NC(=O)c1cccc(Br)c1)c1[nH]nc(-c2ccc(F)cc2)c1-c1ccncc1
95%	C[C@@H](NS(=O)(=O)c1ccccc1Cl)c1[nH]nc(-c2ccc(F)cc2)c1-c1ccncc1
78%	O=C(NCc1[nH]nc(-c2ccc(F)cc2)c1-c1ccncc1)C(c1ccccc1)c1ccccc1
32%	C[C@H](NC(=O)c1cccc(C(F)(F)F)c1)c1[nH]nc(-c2ccc(F)cc2)c1-c1ccncc1
33%	C[C@@H](NC(=O)Cc1cccs1)c1[nH]nc(-c2ccc(F)cc2)c1-c1ccncc1
38%	O=C(N[C@H](Cc1ccccc1)c1[nH]nc(-c2ccc(F)cc2)c1-c1ccncc1)c1cccnc1
67%	C[C@@H](NC(=O)c1cc(F)ccc1F)c1[nH]nc(-c2ccc(F)cc2)c1-c1ccncc1
2%	O=C(N[C@H](Cc1ccccc1)c1[nH]nc(-c2ccc(F)cc2)c1-c1ccncc1)[C@H]1CCCN1
11%	CNC(=O)N[C@@H](Cc1ccccc1)c1[nH]nc(-c2ccc(F)cc2)c1-c1ccncc1
21%	C[C@H](NC(=O)c1cccc(Br)c1)c1[nH]nc(-c2ccc(F)cc2)c1-c1ccncc1
81%	C[C@H](NS(=O)(=O)c1ccccc1Br)c1[nH]nc(-c2ccc(F)cc2)c1-c1ccncc1
18%	O=C(NCc1[nH]nc(-c2ccc(F)cc2)c1-c1ccncc1)c1sc2ccccc2c1Cl
22%	C[C@H](NC(=O)Nc1cccc(F)c1)c1[nH]nc(-c2ccc(F)cc2)c1-c1ccncc1

inhibition	SMILES
90%	C[C@H](NS(=O)(=O)c1cc(S(=O)(=O)c2ccccc2)cs1)c1[nH]nc(-c2ccc(F)cc2)c1-c1ccncc1
36%	C[C@@H](NC(=O)c1ccncc1)c1[nH]nc(-c2ccc(F)cc2)c1-c1ccncc1
77%	Cc1cccc(Cl)c1S(=O)(=O)N[C@H](C)c1[nH]nc(-c2ccc(F)cc2)c1-c1ccncc1
9%	Cc1ccccc1C(=O)NCCc1[nH]nc(-c2ccc(F)cc2)c1-c1ccncc1
44%	C[C@H](NC(=O)c1cc(F)ccc1F)c1[nH]nc(-c2ccc(F)cc2)c1-c1ccncc1
92%	Cc1ccccc1S(=O)(=O)N[C@H](C)c1[nH]nc(-c2ccc(F)cc2)c1-c1ccncc1
88%	C[C@@H](NS(=O)(=O)c1ccc(S(=O)(=O)c2ccccc2)s1)c1[nH]nc(-c2ccc(F)cc2)c1-c1ccncc1
3%	O=C(N[C@H](Cc1ccccc1)c1[nH]nc(-c2ccc(F)cc2)c1-c1ccncc1)C1CCCC1
21%	C[C@H](NC(=O)c1cccs1)c1[nH]nc(-c2ccc(F)cc2)c1-c1ccncc1
11%	Cc1ccccc1C(=O)NCc1[nH]nc(-c2ccc(F)cc2)c1-c1ccncc1
2%	COc1ccccc1C(=O)N[C@H](Cc1ccccc1)c1[nH]nc(-c2ccc(F)cc2)c1-c1ccncc1
11%	O=C(NCCc1[nH]nc(-c2ccc(F)cc2)c1-c1ccncc1)c1cccc(Cl)c1Cl
31%	O=C(NCc1[nH]nc(-c2ccc(F)cc2)c1-c1ccncc1)c1ccc(Cl)c(Cl)c1
3%	C[C@H](NC(=O)c1cc(Cl)cc(Cl)c1)c1[nH]nc(-c2ccc(F)cc2)c1-c1ccncc1
36%	C[C@H](NC(=O)NCCc1ccccc1)c1[nH]nc(-c2ccc(F)cc2)c1-c1ccncc1
